Measured values reported in PMC10993450, “New benzimidazole derivative compounds with in vitro fasciolicidal properties” (Parasites & Vectors, 2024).
“Also recorded” adds a separate entry of the source. Like-named read-outs stand apart in the source and are kept apart here.

Legend:
[1] = test system: Fasciola hepatica eggs (ABZ-susceptible isolate); assay: Egg hatch test (EHT), ABZ-susceptible isolates; assay type: cell-based; details: mean ± SEM; for % Ovicidal activity: ABZ-susceptible isolate; for killing at 5 µM: Fasciola hepatica, read-out: % Ovicidal activity susceptible isolate
Protocol: Eggs were recovered from gallbladders of cattle naturally infected with F. hepatica at the municipal slaughterhouse of León (Spain). For this, the bile of the gallbladders was filtered through sieves of different diameter size pores (500, 150, and 20 µm) using pressurized tap water. Eggs retained on the 20 µm pore size sieve were collected and stored at 4 °C in darkness until required within a maximum period of 2 months.
The susceptibility of the isolates to ABZ was confirmed by the egg hatch test (EHT) using an ABZ discriminant dose (DD) of 0.5 µM [23]. The technique is described in more detail below.
The in vitro anthelmintic activity of a total of 70 BZDs was initially tested on F. hepatica eggs recovered from gallbladders of cattle naturally infected with ABZ-susceptible isolates. The first screening was performed using a fixed concentration of 50 µM. […] Therefore, only BZDs with ovicidal activities over 80% progressed to the next assays at 10 µM. […] At this last concentration, the ovicidal effect of ABZ, ABZSO, and OXF was also evaluated.
The in vitro EHT described in the current study was based on previous studies. Briefly, 100–120 eggs were incubated in 990 µL of water and 10 μL of each working solution at 25 °C in the dark for a period of 12 h. After incubation, eggs were gently washed with tap water three times to facilitate compound removal and kept in darkness at 25 °C for 14 days. After this period, eggs were exposed to light for 2 h to stimulate the hatching of eggs. Then, hatched and unhatched eggs were evaluated and counted using an optical microscope. The term “hatched eggs” includes both hatched and embryonated eggs. Negative control eggs were incubated with 10 μL of DMSO in 990 μL of water, reaching a maximum DMSO concentration of 1% (v/v), while ABZ at 0.5 µM was used as positive control. Each compound at a specific concentration was tested in triplicate in the same EHT and repeated at least two different days.
With the aim to characterize the susceptibility of isolates from naturally infected cattle, the drug used in the EHT was ABZ, tested at a discriminant dose of 0.5 μM. Drug susceptibility is assumed when the ovicidal activity is over 70%, resistance when is lower than 40%, and a suspicion of resistance when activity is between these values at 0.5 μM.
The efficacy of each compound and drug was calculated as its ovicidal activity following the formula below: Ovicidal activity%=100×%eggs hatched in negative control-%egg hatched after drug incubation/%egg hatched in control.

[2] = Cytotoxicity assay, alamarBlue; assay type: cell-based, human; details: human, HepG2 cells; 72 h exposure, alamarBlue; read-out: CC50 Hep-G2
Protocol: The effect of the BZDs on cell viability was assessed on a human hepatocarcinoma HepG2 (ATCC® HB-8065™, USA) cell line. Only compounds screened at a concentration of 10 µM were evaluated. The detailed protocol is described in a previous study carried out by our research group. Briefly, 10,000 cells were seeded on 96-well plates and incubated with different concentrations of the compounds ranging from 1 to 100 µM at 37 °C and 5% CO2. After 72 h of exposure, viability of the cells was assessed using the alamarBlue (Fisher Scientific®, Spain) staining method according to the manufacturer’s recommendations.
The data are represented as mean ± standard error of media (SEM).

[3] = Intestinal tolerability assay on murine intestinal organoids; assay type: cell-based, mouse; details: C57BL/6, mouse, murine small-intestinal organoids, 72 h
Protocol: The murine intestinal organoid cultures were prepared following Stemcell Technologies™ protocols (https://www.stemcell.com/intestinal-epithelial-organoid-culture-with-intesticult-organoid-growth-medium-mouse-lp.html#protocols). Small intestine sections from C57BL/6 mice were excised, washed with ice-cold PBS, minced, and 2 mm segments were washed extensively. The segments were treated with Gentle Cell Dissociation Reagent (Stemcell Technologies™, Canada), resuspended in ice-cold PBS with 0.1% BSA and filtered. This process was repeated four times, resulting in four fractions. Cells from each fraction were centrifuged, washed, and resuspended in ice-cold DMEM/F12 supplemented with glutamine and HEPES 15 mM. Each fraction was mixed with Geltrex GFR LDEV-free (Gibco, Thermo Fisher Scientific, USA) and IntestiCult™ Organoid Grow Medium Mouse (Stemcell Technologies™, Canada), added to a 24-well plate and incubated at 37 °C for 10 min for matrix polymerization. The organoids were cultured in IntestiCult™ Organoid Grow Medium Mouse, with medium changes every 2 days and splitting after 7 days.
For intestinal tolerability assays, selected hit compounds were tested in mouse intestinal organoids at 25 and 50 µM final concentrations. The protocol, based on a previous work, involved the addition of Gentle Cell Dissociation Reagent (Stemcell Technologies™, Canada) on matrix domes, the disruption of the matrix, and the incubation the suspension. After centrifugation, cells were resuspended in DMEM/F12 supplemented with glutamine and HEPES 15 mM and centrifugated again. The pellet was resuspended in a mix of Geltrex GFR LDEV-free and IntestiCult™ Organoid Grow Medium Mouse. The mix was plated in 384-well plates, and after 4 days, mature organoids were exposed to the compounds. The positive control was hydrogen peroxide (0.15% v/v), and the negative control was DMSO (0.2%). Viability after 72 h was assessed using the alamarBlue assay.

[4] = test system: Fasciola hepatica adults (ABZ-resistant isolate); assay: Adult viability test (AVT), motility inhibition; assay type: cell-based; details: 10 µM, ABZ-resistant isolate; for inhibition at 10 µM: Fasciola hepatica, relative to motility score at 24 h
Protocol: The adult viability test was based on a previous study carried out by Kirchhofer et al. with minor modifications. In brief, adult F. hepatica flukes were recovered from bile ducts of infected sheep with the resistant isolate. Flukes were quickly washed with 0.9% (w/v) NaCl and placed in six-well plates (Costar, Spain) with RPMI 1640 culture medium (Sigma-Aldrich®, Spain) supplemented with antibiotics (50 μg/mL streptomycin and 50 IU/mL penicillin; Sigma-Aldrich®, Spain) and 80 μg/mL of a hemin solution at 37 °C.
To monitor the anthelmintic effect of BZDs and the commercial drug ABZ, two flukes per well were incubated up to 72 h at a final concentration of 10 µM. DMSO at 0.5% was used as negative control. The individual movement of each fluke was examined using an inverted microscope at 24, 48, and 72 h. The activity of the compounds was estimated as motility inhibition, using a scale of fluke viability ranging from 3 (normal movements) to 0 (death, no movement observed for 2 min). All tests were repeated at least twice at different days.
Additionally, the percentage of motility inhibition for each compound was calculated from […] to 48 and 72 h after treatment using the following formula: 100 × (mean of the motility score of BZD at 24 h − mean of the motility score of BZD at 48 or 72 h)/(mean of the motility score of BZD at 24 h).
For the AVT, statistical analysis was performed using GraphPad Prism version 8.0.2. The normality of the motility inhibition scores was assessed using the Shapiro–Wilk test. Then, differences among scores at the three time points (24, 48, and 72 h) were evaluated using the Friedman test. In cases where significant differences were observed, post hoc analysis was conducted using the Nemenyi test for multiple comparisons. Comparisons with a P value < 0.05 were considered statistically significant.

[5] = read-out: % Adult motility inhibition 48 h
[6] = read-out: % Adult motility inhibition 72 h

Cc1ccc2[nH]c(NCc3cccs3)nc2c1 [BZD31]
% Ovicidal activity ([1]; 10 µM): 99.58 ± 00.26% | % Ovicidal activity ([1]; 10 µM, listed as BDZ-31): 99.5% | % Ovicidal activity ([1]; 10 µM, listed as BZD-31): ≥ 80% | % Ovicidal activity ([1]; 50 µM): 100.00 ± 0.00% | % Ovicidal activity ([1]; 50 µM, listed as BZD-31): higher than 80% | killing at 5 µM [1]: 74% | CC50 at 72 h [2]: > 50 µM | viability at 72 h, 25 µM [3]: 60.5% | viability at 72 h, 50 µM [3]: 52.4% | Motility inhibition of adults after 72 h of incubation (in words; significance vs 24 h) [4]: significant reduction | inhibition at 10 µM [4, 5]: 35.7% | inhibition at 10 µM [4, 6]: 38.1%

Cc1ccc2[nH]c(NC(=O)c3ccccc3)nc2c1 [BZD46]
% Ovicidal activity ([1]; 10 µM): 83.90 ± 02.87% | % Ovicidal activity ([1]; 50 µM): 98.59 ± 0.94% | % Ovicidal activity ([1]; 50 µM, listed as BZD-46): higher than 80% | killing at 5 µM [1]: 71.2 ± 9.91% | CC50 at 72 h [2]: > 100 µM | viability at 72 h, 25 µM [3]: 99.7% | viability at 72 h, 50 µM [3]: > 87% | Motility inhibition of adults after 72 h of incubation (in words; significance vs 24 h) [4]: nor those with ABZSO or BZD46, exhibited any significant motility inhibition | inhibition at 10 µM [4, 5]: 28.6% | inhibition at 10 µM [4, 6]: 28.6%

COc1ccc2[nH]c(NC(=O)c3ccccc3)nc2c1 [BZD56]
% Ovicidal activity ([1]; 10 µM): 93.93 ± 01.90% | % Ovicidal activity ([1]; 10 µM, listed as BZD-56): ≥ 80% | % Ovicidal activity ([1]; 50 µM): 99.58 ± 0.22% | % Ovicidal activity ([1]; 50 µM, listed as BZD-56): higher than 80% | killing at 5 µM [1]: < 90% | CC50 at 72 h [2]: > 100 µM | viability at 72 h, 25 µM [3]: 82.5% | viability at 72 h, 50 µM [3]: > 87% | Motility inhibition of adults after 72 h of incubation (in words; significance vs 24 h) [4]: significant reduction | inhibition at 10 µM [4, 5]: 53% | inhibition at 10 µM [4, 6]: 51.5%

O=C(Nc1nc2cc(Cl)ccc2[nH]1)c1ccccc1 [BZD59]
% Ovicidal activity ([1]; 10 µM): 91.16 ± 02.58% | % Ovicidal activity ([1]; 10 µM, listed as BZD-59): ≥ 80% | % Ovicidal activity ([1]; 50 µM): 100.00 ± 0.00% | % Ovicidal activity ([1]; 50 µM, listed as BZD-59): higher than 80% | killing at 5 µM [1]: 73.5 ± 8.88% | CC50 at 72 h [2]: > 100 µM | viability at 72 h, 25 µM [3]: 82.7% | viability at 72 h, 50 µM [3]: 56.7% | Motility inhibition of adults after 72 h of incubation (in words; significance vs 24 h) [4]: high motility inhibition; also recorded: significant reduction; also recorded: most potent compound; also recorded: most significant reduction in worm motility | inhibition at 10 µM [4, 5]: 46.7% | inhibition at 10 µM [4, 6]: 60%
